The text below walks through data of ChEMBL document CHEMBL1141113, “High affinity electrophilic and photoactivatable covalent endocannabinoid probes for the CB1 receptor” (J Med Chem, 2005).

The pKi is −log10 of the Ki, conventionally taken in molar units.

One assay deals with Cannabinoid receptor 2 (Mus musculus, UniProt P47936). In words: Binding affinity towards mouse spleen cannabinoid receptor 2 in the presence of PMSF upon incubation for 15 min at 4 degree C in pH 7.4 using [3H]CP-55940. The format is tissue-based.
The target of a further assay is Cannabinoid receptor 1 (Rattus norvegicus, UniProt P20272). In words: Binding affinity towards rat brain cannabinoid receptor 1 in the presence of PMSF upon incubation for 15 min at 4 degree C in pH 7.4 using [3H]CP-55940.

pKi: −log10 of the molar value.

Sequence of Cannabinoid receptor 1 (P20272 whole entry): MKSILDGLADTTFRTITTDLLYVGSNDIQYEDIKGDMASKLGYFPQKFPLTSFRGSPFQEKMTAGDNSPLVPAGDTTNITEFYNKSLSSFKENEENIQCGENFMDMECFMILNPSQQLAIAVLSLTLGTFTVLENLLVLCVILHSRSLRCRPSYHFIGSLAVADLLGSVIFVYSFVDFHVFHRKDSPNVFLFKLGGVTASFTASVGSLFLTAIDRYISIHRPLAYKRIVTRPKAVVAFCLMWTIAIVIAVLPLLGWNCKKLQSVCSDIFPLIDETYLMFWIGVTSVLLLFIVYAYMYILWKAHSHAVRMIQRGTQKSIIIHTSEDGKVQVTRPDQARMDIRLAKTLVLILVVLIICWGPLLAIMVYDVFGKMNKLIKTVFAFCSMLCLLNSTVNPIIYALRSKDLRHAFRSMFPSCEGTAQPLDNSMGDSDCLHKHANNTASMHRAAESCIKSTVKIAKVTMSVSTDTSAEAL
Sequence of Cannabinoid receptor 2 (P47936 whole entry): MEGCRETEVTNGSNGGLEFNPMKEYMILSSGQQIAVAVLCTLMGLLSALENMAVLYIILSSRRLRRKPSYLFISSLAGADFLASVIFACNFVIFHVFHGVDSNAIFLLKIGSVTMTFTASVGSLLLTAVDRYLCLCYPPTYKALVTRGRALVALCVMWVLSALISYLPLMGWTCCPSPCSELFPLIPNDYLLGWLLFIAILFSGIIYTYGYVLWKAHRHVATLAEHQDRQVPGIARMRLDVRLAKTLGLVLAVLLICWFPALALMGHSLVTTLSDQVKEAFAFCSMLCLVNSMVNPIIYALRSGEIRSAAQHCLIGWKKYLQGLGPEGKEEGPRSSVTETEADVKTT

For `O=C(CCC/C=C\C/C=C\C/C=C\C/C=C\CCCCCN=C=S)NC1CC1`, the pKi on Cannabinoid receptor 2 was 7.31; at Cannabinoid receptor 1, 8.89.
The like results for `CCCCC/C=C\C/C=C\C/C=C\C/C=C\CCCC(=O)NC1CC1` were, in that order, 6.80 and 8.57.
